What all share (assay type): cell-based, human
Assay [1] relates to HUVEC. The experiment in a line: Cell survival in serum-free medium (MTS). More on the design: effect of inhibitor on cell survival of control cells: dose or concentration left out as unconfirmed.
Experimental: Endothelial cells were plated into gelatin coated 96 well microtitre trays at 3×10^3 cells per well in serum-free medium. MTS (Promega, WI, USA) was used to measure cell viability. Optical density at 490 nm was measured on Day 0, Day 1, Day 2, and Day 3.
Cell survival was measured in serum-free medium supplemented with ECGs and in non-tissue culture non-adhesive trays coated with 1% bovine serum albumin under serum free culture conditions.
Assay [2] concerns E-Selectin. In words: E Selectin cell surface expression (FACS). On the procedure:
(§1) Flow cytometric analysis of cell surface expression of E-Selectin and VCAM-1 was performed as previously described (11) using 10 μg/ml mouse monoclonal primary antibodies to E-Selectin (49-1B11) or VCAM-1 (51-10C9) generated in our laboratory (Gamble J R, Khew-Goodall Y, Vadas M A. (1993) supra). Secondary antibodies used were anti-mouse fluorescein-isothiocyanate, or for GFP-expressing cells, goat anti-mouse IgG R-phycoerythrin conjugate (Southern Biotech Birmingham, Ala., USA). The median fluorescence intensity was determined using a Coulter Epics Profile XL flow cytometer.

The test system of assay [3] is PECAM-1. The experiment in a line: PECAM-1 expression (flow cytometry, Western blot). Particulars: normal HUVEC. The procedure: SDS-polyacrylamide gel electrophoresis was performed as described (Pitson S M, Moretti P A, Zebol J R, Xia P, Gamble J R, Vadas M A et al. (2000) J Biol Chem; 275(43):33945-33950) on cell lysates using 12% acrylamide gels. […] The membrane was incubated with horseradish peroxidase-conjugated anti-mouse IgG or anti-rabbit IgG (Pierce) and immunocomplexes were detected using enhanced chemiluminescence (Amersham Pharmacia Biotech).
Flow cytometric analysis of cell surface expression of PECAM-1 and VE-Cadherin was performed as previously described (Xia P, Gamble J R, Rye K A, Wang L, Hii C S, Cockerill P et al. (1998) supra) using 10 µg/ml mouse monoclonal primary antibodies to PECAM-1 (51-6F6) or VE-Cadherin (55-7H1) generated in our laboratory (Gamble J R, Khew-Goodall Y, Vadas M A. (1993) J Immunol; 150(10):4494-4503). […] The median fluorescence intensity was determined using a Coulter Epics Profile XL flow cytometer. FAC S analysis of the cell surface expression of CD34 was done by incubating 1×10^6 cells with […] of anti-CD34, R-phycoerythrin (R-PE)-conjugated mouse anti-human mAb (BD Pharmingen, San Diego, Calif.) for 30 minutes at room temperature, and then determining the median fluorescence intensity.
(In general: Flow cytometry measures light scatter and fluorescence of single cells or particles in a stream.)

In assay [4] the test system is PECAM-1. In words: PECAM-1 phosphorylation (Western blot). Particulars: data not shown. The procedure: SDS-polyacrylamide gel electrophoresis was performed as described (Pitson S M, Moretti P A, Zebol J R, Xia P, Gamble J R, Vadas M A et al. (2000) J Biol Chem; 275(43):33945-33950) on cell lysates using 12% acrylamide gels. Proteins were transferred to PVDF membranes, blocked in 5% low fat milk in PBS with 0.1% Tween20 for one hour, and incubated overnight at 4 C with M2 mouse anti-FLAG antibody (Sigma, St Louis, Mo.), rabbit polyclonal anti-phospho-Akt (Cell Signaling Technology), rabbit polyclonal anti-Akt (Cell Signaling Technology), anti-phosphotyrosine (Cell Signaling Technology), or for one hour at room temperature with mouse anti-cyclin D1 or cyclin E (Santa Cruz Biotechnology) or mouse monoclonal antibody directed to PECAM-1 (51-6F6) raised at The Hanson Institute, Adelaide, Australia. The membrane was incubated with horseradish peroxidase-conjugated anti-mouse IgG or anti-rabbit IgG (Pierce) and immunocomplexes were detected using enhanced chemiluminescence (Amersham Pharmacia Biotech).

Assay [5] relates to VCAM-1. In words: VCAM-1 cell surface expression (FACS). The procedure:
as §1

The mark [6] stands for this setting: 5 μM for four hours, SK and EV cells.
[7] abbreviates: pertussis toxin 50 ng/ml 18 hours, then TNFα 0.5 ng/ml four hours, control cells or SK cells.
[8] abbreviates: pertussis toxin 50 ng/ml, cells over-expressing SK or EV.

Data on 4 compounds can be found in patent publication US20060205688A1, “Method of modulating epithelial cell activity by modulating the functional levels of sphingosine kinase” (priority 2002, published 2006).

Entries after “also recorded” stand apart in the source; their conditions may differ. Read-outs that look alike come from different tables or passages of the source.

As to `COc1cccc(-c2cc(=O)c3ccccc3o2)c1N` [PD98059], the “effect of inhibitor on cell survival of control cells” value in assay [1] (EV cells, Day 2) is “significantly reduced cell survival”.

Regarding `CCCCCCCCCCCCC/C=C/[C@@H](O)[C@@H](N)COP(=O)(O)O` [S1P], the “E Selectin expression after exogenous SIP” value in assay [2] (setting [6]) is listed as “up-regulation”. Moreover, the “PECAM-1 expression after exogenous S1P” value in assay [3] is given as “did not induce PECAM-1 expression; also recorded: had no effect”. The “PECAM-1 phosphorylation status after exogenous S1P” value in assay [4] is “had no effect”. Further, the “VCAM-1 expression after exogenous SIP” value in assay [5] (setting [6]) is “up-regulation”.

For the compound `N#CC(=C(/N)Sc1ccccc1N)/C(C#N)=C(\N)Sc1ccccc1N` [U0126], the “effect of inhibitor on cell survival of control cells” value in assay [1] is on record as “significantly reduced cell survival”.

For the compound pertussis toxin, the “effect on SK-mediated cell survival” value in assay [1] (pertussis toxin 50 ng/ml, HUVEC over-expressing SK) was “not inhibited”. The “effect of pre-treatment on TNFα-induced E Selectin expression” value in assay [2] (setting [7]) is “did not alter”. The “effect on basal or TNFα-induced E Selectin expression” value in assay [2] (setting [8]) is on record as “did not inhibit”. The “effect of pretreatment on adhesion molecule response to exogenous SIP” value in assay [5] (SK and EV cells, adhesion molecule (VCAM-1 / E Selectin) not specified) is recorded as “inhibited”. Moreover, in assay [5] (setting [7]), the “effect of pre-treatment on TNFα-induced VCAM-1 expression” value is on record as “did not alter”. Besides, in assay [5] (setting [8]), the “effect on basal or TNFα-induced VCAM-1 expression” value is reported as “did not inhibit”.
